Results as given in patent publication US8367583B2, “Composition and method for controlling pests” (Sumitomo Chemical Company, Limited, priority 2009, dated 2013).

Columns and labels:
[1] = system: first-instar larvae of Nilaparvata lugens; assay: Test Example 3: rice seed immersion, control rate against Nilaparvata lugens larvae; type: in vivo; conditions: rice seeds immersed 24 hours at 30° C., 7 days after release
Excerpt: (§1) Control Rate=100×(1−[(Ts/30)/(Cs/30)]) “Equation A” where Ts and Cs denote the number of surviving larvae in the treatment group and the non-treatment group, respectively. When the control rate is less than 0 (Ts>Cs), it is represented by 0.
An aqueous solution of the compound I prepared by dissolving the compound I in water was appropriately mixed with a chemical solution of fipronil prepared by diluting fipronil (Prince Flowable: manufactured by BASF Agro, Ltd.) with water to prepare a mixed chemical solution for test of the compound I and fipronil with a predetermined concentration. In 40 ml of the mixed chemical solution for test, 100 of rice seeds were immersed and allowed to stand at 30° C. for 24 hours, and then each of the 15 seeds were sown in cultivation soil filled in a 90-ml plastic cup. Eleven (11) days after the sowing, 30 of first-instar larvae of Nilaparvata lugens were released on seedlings germinated from the rice seeds. After 7 days, the number of the surviving larvae was counted and the control rate was calculated using the equation A in the same manner as in Example 2.
(§2) For comparison, the test was conducted in the same manner using an aqueous solution for test having a predetermined concentration of the compound I prepared by diluting an aqueous solution of the compound I with water, and a chemical solution for test having a predetermined concentration of fipronil prepared by diluting a chemical solution of fipronil with water, respectively.

[2] = system: first-instar larvae of Pseudaletia Separata; assay: Test Example 2: treatment of the foot of rice seedlings, control rate against Pseudaletia Separata larvae; type: in vivo; conditions: rice seedling foot treated with 5 ml, 3 days after release
Procedure: An aqueous solution of the compound I prepared by dissolving the compound I in water was appropriately mixed with a chemical solution of fipronil prepared by diluting Fipronil (Prince Flowable: manufactured by BASF Agro, Ltd.) with water to prepare a mixed chemical solution for test of the compound I and fipronil with a predetermined concentration. The foot of a rice seedling (2 weeks after germination) cultivated in a 90-ml plastic cup using cultivation soil was treated with 5 ml of the mixed chemical solution for test. After 3 days, 30 of first-instar larvae of Pseudaletia Separata were released per plant. After 3 days, the number of surviving larvae was counted and the control rate was calculated using the equation A.
as §2, §1

| Compound | Control rate ([1]; Fipronil 3.1 ppm singly (Compound I 0 ppm)) [%] | Control rate ([2]; Fipronil 10 ppm singly (Compound I 0 ppm)) [%] | Control rate ([2]; Fipronil 30 ppm singly (Compound I 0 ppm)) [%] | Control rate ([2]; Fipronil 100 ppm singly (Compound I 0 ppm)) [%] | Control rate ([1]; Compound I 50 ppm singly (Fipronil 0 ppm)) [%] | Control rate ([1]; Compound I 200 ppm singly (Fipronil 0 ppm)) [%] | Control rate ([2]; Compound I 10 ppm singly (Fipronil 0 ppm)) [%] | Control rate ([2]; Compound I 30 ppm singly (Fipronil 0 ppm)) [%] | Control rate ([2]; Compound I 100 ppm singly (Fipronil 0 ppm)) [%] |
| --- | --- | --- | --- | --- | --- | --- | --- | --- | --- |
| N#Cc1nn(-c2c(Cl)cc(C(F)(F)F)cc2Cl)c(N)c1[S+]([O-])C(F)(F)F (stereo not drawn) [Fipronil, 5-amino-1-(2,6-dichloro-α,α,α-trifluoro-p-tolyl)-4-trifluoromethylsulfinyl pyrazole-3-carbonitrile, reference compound] | 50 | 23 | 41 | 68 |  |  |  |  |  |
| O=C(O)CCC(=O)NCCc1ccccc1 [Compound I, 4-oxo-4-[(2-phenylethyl)amino]-butyric acid] |  |  |  |  | 11 | 21 | 0 | 0 | 0 |
